Test results: US20260085034A1, “N-(BENZHYDRYL)CYCLOALKYLCARBOXAMIDE DERIVATIVES AS INHIBITORS OF GLYCOGEN SYNTHASE 1 (GYS1) AND METHODS OF USE THEREOF” (Maze Therapeutics, Inc., priority 2022, published 2026)
pIC50: −log10 of the molar value.

Target: T1, recombinant hGYS2/GN1 protein (Homo sapiens, UniProt P54840)
T1 sequence (P54840 1-703): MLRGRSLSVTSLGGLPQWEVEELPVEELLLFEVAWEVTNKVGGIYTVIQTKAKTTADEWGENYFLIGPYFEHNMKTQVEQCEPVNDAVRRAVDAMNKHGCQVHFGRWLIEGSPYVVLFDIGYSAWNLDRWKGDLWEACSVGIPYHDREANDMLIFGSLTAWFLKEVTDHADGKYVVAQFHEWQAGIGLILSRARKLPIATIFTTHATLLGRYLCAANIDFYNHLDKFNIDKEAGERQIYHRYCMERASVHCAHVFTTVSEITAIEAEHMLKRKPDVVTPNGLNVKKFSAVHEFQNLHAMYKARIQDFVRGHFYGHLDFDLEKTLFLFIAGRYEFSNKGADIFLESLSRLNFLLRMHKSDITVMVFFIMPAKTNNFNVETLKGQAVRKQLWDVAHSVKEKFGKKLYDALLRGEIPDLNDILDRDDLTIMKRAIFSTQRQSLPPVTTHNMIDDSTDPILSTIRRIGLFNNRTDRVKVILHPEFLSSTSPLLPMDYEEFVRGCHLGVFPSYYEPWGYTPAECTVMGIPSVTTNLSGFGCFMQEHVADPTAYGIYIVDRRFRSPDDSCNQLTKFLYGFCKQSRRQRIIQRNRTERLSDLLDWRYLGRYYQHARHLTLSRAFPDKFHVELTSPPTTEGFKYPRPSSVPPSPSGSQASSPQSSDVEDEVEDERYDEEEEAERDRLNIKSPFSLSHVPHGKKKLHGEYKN
T1 sequence (P46976 1-350 partner): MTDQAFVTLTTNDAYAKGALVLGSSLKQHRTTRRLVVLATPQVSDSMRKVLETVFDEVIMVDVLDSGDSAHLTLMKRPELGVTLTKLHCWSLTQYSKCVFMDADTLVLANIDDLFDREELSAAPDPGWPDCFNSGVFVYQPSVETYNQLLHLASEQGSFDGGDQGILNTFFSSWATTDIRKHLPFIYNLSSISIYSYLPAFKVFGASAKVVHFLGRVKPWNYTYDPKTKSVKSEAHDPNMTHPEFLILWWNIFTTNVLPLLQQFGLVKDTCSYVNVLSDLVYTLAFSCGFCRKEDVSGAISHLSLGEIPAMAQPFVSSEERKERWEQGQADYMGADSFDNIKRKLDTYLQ
Assay: GYS2 coupled enzyme assay (PK/LDH)
Format: biochemical
Details: geometric mean of at least 2 assay runs; NADH absorbance at 340 nm
Method in brief: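 Reaction in 50 mM Tris pH 7.5, 2 mM MgCl2, 100 mM KCl, 0.02% BSA, 1 mM TCEP, 2.5% DMSO, with 0.2% glycogen. Substrate buffer held 200 nM hGYS2/GN1, 2 mM each UDP-glucose, G6P and PEP, 0.6 mM NADH and PK/LDH, before 1:1 mixing. A340 slope over 10 min was control-normalized and Hill-fitted; IC50 = geometric mean of ≥2 runs, duplicates per run.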

- pIC50: < 4.00
Compound: CC(C)c1ccc([C@@H](NC(=O)[C@H]2C[C@@H]2F)c2ccn[nH]2)cc1F (single isomer, unassigned) [compound 11]
